Patent publication US20230263822A1, “MODULATION OF FACTOR 11 EXPRESSION” (Ionis Pharmaceuticals, Inc., priority 2008, published 2023)
Strand notation (5' to 3'): a small letter for the sugar, then the base; units joined by * are phosphorothioate-linked, units joined directly phosphodiester-linked; [ ] holds rarer units or linkages, { } end groups; capitals alone tell only the bases. e = 2'-O-(2-methoxyethyl) (MOE); [5mC] = 5-methylcytosine; d = 2'-deoxy (DNA)

Columns and labels:
[1] = test system: human Factor 11 mRNA; experiment: Dose-dependent inhibition of human Factor 11 in HepG2 cells, electroporation 123.46-10,000 nM (Example 31); assay type: cell-based; settings: for Percent inhibition of Factor 11 mRNA at 123.47 nM / Percent inhibition of Factor 11 mRNA at 370.37 nM / IC50: electroporation; for Percent inhibition of Factor 11 mRNA at 123.47 nM / Percent inhibition of Factor 11 mRNA at 370.37 nM / Percent inhibition of Factor 11 mRNA at 1,111.11 nM / Percent inhibition of Factor 11 mRNA at 3,333.33 nM / Percent inhibition of Factor 11 mRNA at 10,000.0 nM: approx. 16 hours, relative to untreated control cells; for Percent inhibition of Factor 11 mRNA at 1,111.11 nM: electroporation, 1,111.11 nM; for Percent inhibition of Factor 11 mRNA at 3,333.33 nM: electroporation, 3,333.33 nM; for Percent inhibition of Factor 11 mRNA at 10,000.0 nM: electroporation, 10,000.0 nM; for IC50: Factor 11 mRNA expression
Summary of the method: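 HepG2 cells were electroporated with antisense oligonucleotide at 123.46, 370.37, 1,111.11, 3,333.33 and 10,000 nM and harvested about 16 hours later. Factor 11 mRNA was quantified by qRT-PCR and normalised to total RNA (RIBOGREEN). Inhibition is expressed relative to untreated cells.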

[2] = Body and organ weights of cynomolgus monkeys (Example 45); assay type: in vivo; settings: for Organ weights, Kidney / Organ weights, Liver / Organ weights, Spleen: after the animals were euthanized;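 on Organ weights, Kidney: absolute organ weight in grams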;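 on Organ weights, Liver: absolute organ weight in grams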;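 on Organ weights, Spleen: absolute organ weight in grams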
Method: (§1) Groups, each consisting of two male and three female monkeys, were injected subcutaneously with ISIS 416838, ISIS 416850, ISIS 416858, ISIS 416864, or ISIS 417002 in escalating doses. Antisense oligonucleotide was administered to the monkeys at 5 mg/kg three times per a week for week 1; 5 mg/kg twice per week for weeks 2 and 3; 10 mg/kg three times per week for week 4; 10 mg/kg twice per week for weeks 5 and 6; 25 mg/kg three times per week for week 7; and 25 mg/kg twice per week for weeks 8, 9, 10, 11, and 12. One control group, consisting of two male and three female monkeys, was injected subcutaneously with PBS according to the same dosing regimen. An additional experimental group, consisting of two male and three female monkeys, was injected subcutaneously with ISIS 416850 in a chronic, lower dose regimen. Antisense oligonucleotide was administered to the monkeys at 5 mg/kg three times per week for week 1; 5 mg/kg twice per week for week 2 and 3; 10 mg/kg three times per week for week 4; and 10 mg/kg twice per week for weeks 5 to 12. Body weights were measured weekly. Blood samples were collected 14 days and 5 days before the start of treatment and subsequently once per week for Factor 11 protein activity analysis in plasma, fibrinogen measurement, PT and aPTT measurements, bleeding times, and measurement of various hematologic factors. On day 85, the monkeys were euthanized by exsanguination while under deep anesthesia, and organs harvested for further analysis.
Body weights were taken once weekly throughout the dosing regimen. […] Organ weights were taken after the animals were euthanized and livers, kidneys and spleens were harvested and weighed. […] The ISIS oligonucleotide, ISIS 416850, given with the chronic dose regimen is distinguished from the other oligonucleotides with an asterisk (*).

[3] = test system: platelet aggregation; experiment: Platelet aggregation assay, ADP and/or collagen (Example 45); assay type: in vivo, cynomolgus monkeys
Method: as §1
Platelet aggregation was initiated by adding 1 mmol/L ADP and/or 3 μg collagen (depending on the collection day, as outlined in Table 121) to plasma samples, and was allowed to proceed for 10 minutes. Aggregation was characterized by recording the change in the electrical resistance or impedance and the change in the initial slope of aggregation after platelet shape change. The aggregation test was performed twice per sample on each collection day and the average value was taken. The ISIS oligonucleotide, ISIS 416850, given with the chronic dose regimen is distinguished from the other oligonucleotides with an asterisk (*).

[4] = day 15, escalating dose regimen
[5] = day 22, escalating dose regimen
[6] = day 29, escalating dose regimen
[7] = day 36, escalating dose regimen
[8] = day 43, escalating dose regimen
[9] = day 50, escalating dose regimen
[10] = day 57, escalating dose regimen
[11] = day 64, escalating dose regimen
[12] = day 71, escalating dose regimen
[13] = day 78, escalating dose regimen
[14] = day 15 (with ADP), escalating dose regimen
[15] = day 36 (with ADP), escalating dose regimen
[16] = day 43 (with collagen), escalating dose regimen
[17] = day 57 (with ADP), escalating dose regimen
[18] = day 64 (with collagen), escalating dose regimen
[19] = day 78 (with ADP), escalating dose regimen
[20] = day 85 (with ADP), escalating dose regimen
[21] = day 85 (with collagen), escalating dose regimen
[22] = day −5 (with collagen), escalating dose regimen

Substance | body weights ([2]; day 1, escalating dose regimen) | body weights ([2]; day 8, escalating dose regimen) | body weights [2, 4] | body weights [2, 5] | body weights [2, 6] | body weights [2, 7] | body weights [2, 8] | body weights [2, 9] | body weights [2, 10] | body weights [2, 11] | body weights [2, 12] | body weights [2, 13] | platelet aggregation [3, 14] | platelet aggregation [3, 15] | platelet aggregation [3, 16] | platelet aggregation [3, 17] | platelet aggregation [3, 18] | platelet aggregation [3, 19] | platelet aggregation [3, 20] | platelet aggregation [3, 21] | further results
416850 (antisense TGCACAGTTTCTGGCAGGCC; 5-10-5 gapmer, further chemistry not given here) [compound 416850] | – | – | – | – | – | – | – | – | – | – | – | – | – | – | – | – | – | – | – | – | Percent inhibition of Factor 11 mRNA at 123.47 nM [1]: 0%; Percent inhibition of Factor 11 mRNA at 370.37 nM [1]: 12%; Percent inhibition of Factor 11 mRNA at 1,111.11 nM [1]: 36%; Percent inhibition of Factor 11 mRNA at 3,333.33 nM [1]: 74%; Percent inhibition of Factor 11 mRNA at 10,000.0 nM [1]: 73%; IC50 [1]: 2800 nM
416858 (antisense ACGGCATTGGTGCACAGTTT; 5-10-5 gapmer, further chemistry not given here) [compound 416858] | – | – | – | – | – | – | – | – | – | – | – | – | – | – | – | – | – | – | – | – | Percent inhibition of Factor 11 mRNA at 123.47 nM [1]: 0%; Percent inhibition of Factor 11 mRNA at 370.37 nM [1]: 27%; Percent inhibition of Factor 11 mRNA at 1,111.11 nM [1]: 36%; Percent inhibition of Factor 11 mRNA at 3,333.33 nM [1]: 64%; Percent inhibition of Factor 11 mRNA at 10,000.0 nM [1]: 70%; IC50 [1]: 2200 nM
445522 (antisense eG*e[5mC]*eA*e[5mC]*eA*dG*dT*dT*dT*d[5mC]*dT*dG*dG*e[5mC]*eA*eG*eG*e[5mC]) [compound 445522] | – | – | – | – | – | – | – | – | – | – | – | – | – | – | – | – | – | – | – | – | Percent inhibition of Factor 11 mRNA at 123.47 nM [1]: 0%; Percent inhibition of Factor 11 mRNA at 370.37 nM [1]: 0%; Percent inhibition of Factor 11 mRNA at 1,111.11 nM [1]: 44%; Percent inhibition of Factor 11 mRNA at 3,333.33 nM [1]: 63%; Percent inhibition of Factor 11 mRNA at 10,000.0 nM [1]: 74%; IC50 [1]: 2900 nM
445531 (antisense eG*eG*e[5mC]*eA*eT*dT*dG*dG*dT*dG*d[5mC]*dA*d[5mC]*eA*eG*eT*eT*eT) [compound 445531] | – | – | – | – | – | – | – | – | – | – | – | – | – | – | – | – | – | – | – | – | Percent inhibition of Factor 11 mRNA at 123.47 nM [1]: 8%; Percent inhibition of Factor 11 mRNA at 370.37 nM [1]: 16%; Percent inhibition of Factor 11 mRNA at 1,111.11 nM [1]: 52%; Percent inhibition of Factor 11 mRNA at 3,333.33 nM [1]: 61%; Percent inhibition of Factor 11 mRNA at 10,000.0 nM [1]: 77%; IC50 [1]: 1800 nM
ISIS 416838: MOE gapmer, nucleobases 1018 to 1042 of SEQ ID NO: 1 (Table 6) (antisense GCAACCGGGATGATGAGTGC; MOE gapmer, wing and gap sizes not given here) | 2720 g | 2592 g | 2642 g | 2702 g | 2689 g | 2708 g | 2700 g | 2731 g | 2737 g | 2746 g | 2869 g | 2766 g | 15 Ohms | 8 Ohms | 16 Ohms | 7 Ohms | 13 Ohms | 11 Ohms | 15 Ohms | 24 Ohms | Organ weights, Kidney [2]: 12 g; Organ weights, Liver [2]: 63 g; Organ weights, Spleen [2]: 5 g; platelet aggregation [3, 22]: 15 Ohms
ISIS 416850: MOE gapmer, nucleobases 1275 to 1318 of SEQ ID NO: 1 (Table 8) (antisense TGCACAGTTTCTGGCAGGCC; MOE gapmer, wing and gap sizes not given here) | 2572 g | 2430 g | 2474 g | 2514 g | 2515 g | 2545 g | 2544 g | 2613 g | 2629 g | 2642 g | 2769 g | 2660 g | 12 Ohms | 16 Ohms | 16 Ohms | 18 Ohms | 17 Ohms | 9 Ohms | 22 Ohms | 26 Ohms | body weights ([2]; day 1, chronic dose regimen (*)): 2665 g; body weights ([2]; day 8, chronic dose regimen (*)): 2579 g; body weights ([2]; day 15, chronic dose regimen (*)): 2607 g; body weights ([2]; day 22, chronic dose regimen (*)): 2661 g; body weights ([2]; day 29, chronic dose regimen (*)): 2667 g; body weights ([2]; day 36, chronic dose regimen (*)): 2656 g; body weights ([2]; day 43, chronic dose regimen (*)): 2670 g; body weights ([2]; day 50, chronic dose regimen (*)): 2679 g; platelet aggregation ([3]; day 15 (with ADP), chronic dose regimen (*)): 14 Ohms; platelet aggregation ([3]; day 36 (with ADP), chronic dose regimen (*)): 11.6 Ohms; platelet aggregation ([3]; day 43 (with collagen), chronic dose regimen (*)): 21 Ohms; platelet aggregation ([3]; day −5 (with collagen), chronic dose regimen (*)): 21 Ohms; platelet aggregation [3, 22]: 23 Ohms
ISIS 416858: MOE gapmer, nucleobases 1275 to 1318 of SEQ ID NO: 1 (Table 8) (antisense ACGGCATTGGTGCACAGTTT; MOE gapmer, wing and gap sizes not given here) | 2912 g | 2740 g | 2760 g | 2800 g | 2763 g | 2584 g | 2607 g | 2646 g | 2617 g | 2618 g | 2865 g | 2713 g | 19 Ohms | 17 Ohms | 16 Ohms | 11 Ohms | 14 Ohms | 8 Ohms | 18 Ohms | 23 Ohms | Organ weights, Kidney [2]: 13 g; Organ weights, Liver [2]: 60 g; Organ weights, Spleen [2]: 12 g; Spleen weight ([2]; cynomolgus monkeys, compared to the PBS control): shows increase in spleen weight; platelet aggregation [3, 22]: 22 Ohms
ISIS 416864: MOE gapmer, nucleobases 1275 to 1318 of SEQ ID NO: 1 (Table 8) (antisense GGCAGCGGACGGCATTGGTG; MOE gapmer, wing and gap sizes not given here) | 2890 g | 2784 g | 2817 g | 2857 g | 2863 g | 3327 g | 3355 g | 3408 g | 3387 g | 3384 g | 2942 g | 2822 g | 20 Ohms | 17.8 Ohms | 20 Ohms | 18 Ohms | 17 Ohms | 13 Ohms | 22 Ohms | 28 Ohms | Organ weights, Kidney [2]: 14 g; Organ weights, Liver [2]: 53 g; Organ weights, Spleen [2]: 5 g; platelet aggregation [3, 22]: 27 Ohms
ISIS 417002: MOE gapmer, nucleobases 1275 to 1318 of SEQ ID NO: 1 (Table 8) (antisense GGTGCACAGTTTCTGGCAGG; MOE gapmer, wing and gap sizes not given here) | 2640 g | 2523 g | 2571 g | 2617 g | 2622 g | 2631 g | 2630 g | 2652 g | 2654 g | 2598 g | 2727 g | 2570 g | 16 Ohms | 13.9 Ohms | 19 Ohms | 18 Ohms | 18 Ohms | 18 Ohms | 22 Ohms | 24 Ohms | Organ weights, Kidney [2]: 15 g; Organ weights, Liver [2]: 51 g; Organ weights, Spleen [2]: 5 g; platelet aggregation [3, 22]: 21 Ohms
